Patent publication US12448389B2, “BRM targeting compounds and associated methods of use” (Prelude Therapeutics Incorporated, priority 2020, dated 2025)

Key:
[1] = target: T1, SMARCA2-HiBiT (Homo sapiens, UniProt P51531); assay: SMARCA2 HiBiT degradation assay in HeLa cells; type: cell-based; conditions: 18 hours incubation; for DC50: read-out: HeLa_HiBit-SM2 DC50; for Dmax: HeLa, read-out: HeLa-HiBit-SM2 Dmax (%)
T1 construct: SMARCA2-HiBiT knock-in Hela monoclonal cell (CS302366); host or cells: HeLa monoclonal knock-in line (CRISPR HiBiT knock-in at the endogenous locus, heterozygous)
Experimental: (§1) HiBiT peptide knock-in of SMARCA2 in LgBiT expressing HEK293T cells was performed by CRISPR-mediated tagging system as described Promega. The homozygous HiBiT knock-in on c-terminus SMARCA2 was confirmed by sanger sequence. SMARCA2-HiBiT knock-in Hela monoclonal cell (CS302366) and SMARCA4-HiBiT knock-in Hela monoclonal cell (CS3023226) were purchased from Promega. The heterozygous HiBiT-knock-in was confirmed by sanger sequence in both SMARCA2-HiBiT and SMARCA4-HiBiT monoclonal cells.
(§2) SMARCA2 HiBiT and SMARCA4 HiBiT Degradation Assay in HeLa Cells
(§3) Dispense 10 ul aliquot of prepared Hela-SMARCA2-HiBiT or Hela-SMARCA4-HiBiT cells (1:1 ratio of cells:Trypan Blue (#1450013, Bio-Rad)) onto cell counting slide (#145-0011, Bio-Rad) and obtain cell density and cell viability using cell counter (TC20, Bio-Rad). Remove appropriate volume of resuspended cells from culture flask to accommodate 2500 cells/well @20 μL/well. Transfer Hela-HiBiT cells to 50 mL conical (#430290, Corning). Spin down at 1000 rpm for 5 min using tabletop centrifuge (SPINCHRON 15, Beckman). Discard supernatant and resuspend cell pellet in modified EMEM (#30-2003, ATCC) cell culture media containing 10% FBS (F2422-500ML, Sigma), and 1×Penicillin/Streptomycin (200 g/L) (30-002-CI, Corning) to a cell density of 125,000 cells/mL. Dispense 20 μL of resuspended Hela-HiBit cells per well in 384-well TC treated plate (#12-565-343, Thermo Scientific) using standard cassette (#50950372, Thermo Scientific) on Multidrop Combi (#5840310, Thermo Scientific) inside laminar flow cabinet. Dispense test compounds onto plates using digital liquid dispenser (D300E, Tecan). Incubate plates in humidified tissue culture incubator @37° C. for 18 hours. Add 20 μL of prepared Nano-Glo® HiBiT Lytic detection buffer (N3050, Promega) to each well of 384-well plate using small tube cassette (#24073295, Thermo Scientific) on Multidrop Combi, incubate @RT for 30-60 min. Read plates on microplate reader (Envision 2105, PerkinElmer) using 384 well Ultra-Sensitive luminescence mode. Raw data files and compound information reports are swept into centralized data lake and deconvoluted using automated scripts designed by TetraScience, Inc. Data analysis, curve-fitting and reporting done in Dotmatics Informatics Suite using Screening Ultra module.

[2] = target: T2, SMARCA4-HiBiT (Homo sapiens, UniProt P51532); assay: SMARCA4 HiBiT degradation assay in HeLa cells; type: cell-based; conditions: 18 hours incubation; for DC50: read-out: HeLa-HiBit-SM4 DC50; for Dmax: HeLa, read-out: HeLa-HiBit-SM4 Dmax (%)
T2 construct: SMARCA4-HiBiT knock-in Hela monoclonal cell (CS3023226); host or cells: HeLa monoclonal knock-in line (CRISPR HiBiT knock-in at the endogenous locus, heterozygous)
Experimental: as §1, §2, §3

T1 sequence (P51531 whole entry): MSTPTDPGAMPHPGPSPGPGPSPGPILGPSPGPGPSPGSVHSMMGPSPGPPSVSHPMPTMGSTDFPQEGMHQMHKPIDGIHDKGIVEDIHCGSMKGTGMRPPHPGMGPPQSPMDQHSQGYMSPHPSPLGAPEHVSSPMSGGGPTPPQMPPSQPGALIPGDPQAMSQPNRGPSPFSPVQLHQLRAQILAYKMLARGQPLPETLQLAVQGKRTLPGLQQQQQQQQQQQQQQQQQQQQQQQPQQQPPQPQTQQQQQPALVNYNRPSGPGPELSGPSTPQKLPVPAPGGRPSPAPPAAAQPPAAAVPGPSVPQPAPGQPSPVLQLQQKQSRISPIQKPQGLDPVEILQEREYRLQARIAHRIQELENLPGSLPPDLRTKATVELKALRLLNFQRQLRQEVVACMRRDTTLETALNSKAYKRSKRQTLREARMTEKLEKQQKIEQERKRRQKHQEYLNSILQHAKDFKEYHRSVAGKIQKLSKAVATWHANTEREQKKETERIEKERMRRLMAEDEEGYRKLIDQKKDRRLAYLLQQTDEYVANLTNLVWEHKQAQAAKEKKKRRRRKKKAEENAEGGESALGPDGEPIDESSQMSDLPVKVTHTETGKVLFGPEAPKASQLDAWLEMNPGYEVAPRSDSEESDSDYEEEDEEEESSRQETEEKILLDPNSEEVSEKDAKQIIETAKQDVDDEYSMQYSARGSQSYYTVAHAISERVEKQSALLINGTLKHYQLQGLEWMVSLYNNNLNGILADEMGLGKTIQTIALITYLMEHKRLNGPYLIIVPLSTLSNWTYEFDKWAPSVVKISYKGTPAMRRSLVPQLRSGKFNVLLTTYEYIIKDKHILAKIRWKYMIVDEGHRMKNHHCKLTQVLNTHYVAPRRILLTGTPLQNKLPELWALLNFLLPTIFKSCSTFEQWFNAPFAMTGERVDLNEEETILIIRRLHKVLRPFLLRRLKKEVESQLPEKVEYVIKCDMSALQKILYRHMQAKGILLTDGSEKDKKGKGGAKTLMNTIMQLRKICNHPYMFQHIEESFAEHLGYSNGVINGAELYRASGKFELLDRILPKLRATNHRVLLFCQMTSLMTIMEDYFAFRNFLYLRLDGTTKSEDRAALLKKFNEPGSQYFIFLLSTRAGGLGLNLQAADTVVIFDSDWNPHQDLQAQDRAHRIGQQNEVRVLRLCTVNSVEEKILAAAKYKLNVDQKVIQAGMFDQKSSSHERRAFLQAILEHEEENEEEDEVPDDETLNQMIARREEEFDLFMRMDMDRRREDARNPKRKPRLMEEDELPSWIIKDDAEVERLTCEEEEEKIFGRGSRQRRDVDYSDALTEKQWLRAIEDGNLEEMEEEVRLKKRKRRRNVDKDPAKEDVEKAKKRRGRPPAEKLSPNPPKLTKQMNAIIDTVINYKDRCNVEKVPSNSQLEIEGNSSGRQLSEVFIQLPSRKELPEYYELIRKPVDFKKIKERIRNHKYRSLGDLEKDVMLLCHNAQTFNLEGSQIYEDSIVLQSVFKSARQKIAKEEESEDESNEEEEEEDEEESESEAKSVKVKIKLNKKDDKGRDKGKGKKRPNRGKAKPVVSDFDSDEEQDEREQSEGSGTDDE
T2 sequence (P51532 whole entry): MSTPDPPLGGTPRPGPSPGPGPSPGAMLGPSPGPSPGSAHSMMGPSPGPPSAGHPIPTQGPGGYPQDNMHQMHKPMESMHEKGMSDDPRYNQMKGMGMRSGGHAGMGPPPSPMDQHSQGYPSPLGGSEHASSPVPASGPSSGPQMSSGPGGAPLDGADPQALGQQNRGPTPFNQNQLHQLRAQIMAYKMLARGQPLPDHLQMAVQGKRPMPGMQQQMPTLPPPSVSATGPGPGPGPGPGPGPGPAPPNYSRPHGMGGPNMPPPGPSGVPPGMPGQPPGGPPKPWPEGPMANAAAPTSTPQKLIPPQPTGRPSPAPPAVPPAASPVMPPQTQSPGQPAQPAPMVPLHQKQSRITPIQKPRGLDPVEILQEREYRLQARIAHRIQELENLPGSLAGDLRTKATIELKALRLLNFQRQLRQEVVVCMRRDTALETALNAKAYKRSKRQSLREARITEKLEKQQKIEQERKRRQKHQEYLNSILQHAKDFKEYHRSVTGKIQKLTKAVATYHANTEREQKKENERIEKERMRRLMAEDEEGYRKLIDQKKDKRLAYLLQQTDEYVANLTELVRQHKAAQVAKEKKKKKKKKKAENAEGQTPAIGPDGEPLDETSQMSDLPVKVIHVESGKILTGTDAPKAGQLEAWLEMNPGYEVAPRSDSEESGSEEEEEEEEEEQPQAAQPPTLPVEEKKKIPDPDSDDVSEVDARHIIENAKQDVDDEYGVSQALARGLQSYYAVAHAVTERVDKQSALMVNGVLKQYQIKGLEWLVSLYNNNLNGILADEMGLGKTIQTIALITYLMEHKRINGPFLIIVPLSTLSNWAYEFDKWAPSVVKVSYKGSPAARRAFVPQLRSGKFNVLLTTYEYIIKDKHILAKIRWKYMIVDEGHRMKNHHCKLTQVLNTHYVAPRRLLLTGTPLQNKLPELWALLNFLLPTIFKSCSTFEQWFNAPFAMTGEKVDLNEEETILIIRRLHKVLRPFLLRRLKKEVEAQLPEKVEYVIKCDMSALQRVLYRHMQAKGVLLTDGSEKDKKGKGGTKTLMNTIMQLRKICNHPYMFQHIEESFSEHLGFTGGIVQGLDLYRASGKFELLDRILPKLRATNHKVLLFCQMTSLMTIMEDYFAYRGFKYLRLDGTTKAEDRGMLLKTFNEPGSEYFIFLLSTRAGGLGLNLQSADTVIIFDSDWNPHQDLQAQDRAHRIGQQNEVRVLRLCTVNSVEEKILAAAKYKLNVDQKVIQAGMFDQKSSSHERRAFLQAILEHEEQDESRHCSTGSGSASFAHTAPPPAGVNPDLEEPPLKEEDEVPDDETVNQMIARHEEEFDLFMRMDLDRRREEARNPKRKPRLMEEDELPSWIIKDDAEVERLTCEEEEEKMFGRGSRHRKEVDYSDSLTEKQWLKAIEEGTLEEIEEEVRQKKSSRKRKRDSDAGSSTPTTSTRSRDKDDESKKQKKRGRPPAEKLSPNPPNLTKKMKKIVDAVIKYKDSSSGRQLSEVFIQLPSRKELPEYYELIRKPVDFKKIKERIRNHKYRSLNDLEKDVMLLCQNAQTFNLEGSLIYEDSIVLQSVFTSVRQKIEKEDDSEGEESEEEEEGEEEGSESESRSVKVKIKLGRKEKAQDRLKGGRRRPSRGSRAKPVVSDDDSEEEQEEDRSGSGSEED

Row | SMILES | DC50 [1] | Dmax [1] | DC50 [2] | Dmax [2]
1 | CC1CC(N2CCN3c4cc(-c5ccccc5O)nnc4NC[C@H]3C2)CCN1CCCC1CCN(c2cccc3c2C(=O)N(C2CCC(=O)NC2=O)C3=O)CC1 (stereo partly drawn) [Example 126, 2-(2,6-dioxopiperidin-3-yl)-4-(4-(3-(4-((S)-2-(2-hydroxyphenyl)-5,6,6a,7,9,10-hexahydro-8H-pyrazino[1′,2′:4,5]pyrazino[2,3-c]pyridazin-8-yl)-2-methylpiperidin-1-yl)propyl)piperidin-1-yl)isoindoline-1,3-dione] | < 10 nM | > 85% | < 10 nM | 75 to 85%
2 | CC1CN(CC2CCN(c3ccc4c(c3)C(=O)N(C3CCC(=O)NC3=O)C4)CC2)CCC1C(=O)N1CCN2c3cc(-c4ccccc4O)nnc3NC[C@H]2C1 (stereo partly drawn) [Example 264, 3-(6-(4-((4-((S)-2-(2-hydroxyphenyl)-6,6a,7,8,9,10-hexahydro-5H-pyrazino[1′,2′:4,5]pyrazino[2,3-c]pyridazine-8-carbonyl)-3-methylpiperidin-1-yl)methyl)piperidin-1-yl)-1-oxoisoindolin-2-yl)piperidine-2,6-dione] | < 10 nM | > 85% | < 10 nM | 75 to 85%
3 | O=C1CCC(N2C(=O)c3ccc(N4CCC(CN5CCC(CN6CCN7c8cc(-c9ccccc9O)nnc8NC[C@H]7C6)CC5)CC4)cc3C2=O)C(=O)N1COC(=O)C1(O)CC1 (stereo partly drawn) [Example 130, (3-(5-(4-((4-(((S)-2-(2-hydroxyphenyl)-5,6,6a,7,9,10-hexahydro-8H-pyrazino[1′,2′:4,5]pyrazino[2,3-c]pyridazin-8-yl)methyl)piperidin-1-yl)methyl)piperidin-1-yl)-1,3-dioxoisoindolin-2-yl)-2,6-dioxopiperidin-1-yl)methyl-1-hydroxycyclopropane-1-carboxylate] | < 10 nM | > 85% | < 10 nM | > 85%
4 | CN(CCN1CCC(C(=O)N2CCN3c4cc(-c5ccccc5O)nnc4NC[C@H]3C2)CC1)c1ccc2c(c1)C(=O)N(C1CCC(=O)NC1=O)C2=O (stereo partly drawn) [Example 222, 2-(2,6-dioxopiperidin-3-yl)-5-((2-(4-((S)-2-(2-hydroxyphenyl)-6,6a,7,8,9,10-hexahydro-5H-pyrazino[1′,2′:4,5]pyrazino[2,3-c]pyridazine-8-carbonyl)piperidin-1-yl)ethyl)(methyl)amino) isoindoline-1,3-dione] | < 10 nM | 50 to 75% | 100 to 1000 nM | ≤ 50%
5 | O=C1CCC(N2Cc3ccc(N4CCOC(CN5CCC(C(=O)N6CCN7c8cc(-c9ccccc9O)nnc8NC[C@H]7C6)CC5)C4)cc3C2=O)C(=O)N1 (stereo partly drawn) [Example 113, 3-(6-(2-((4-((S)-2-(2-hydroxyphenyl)-6,6a,7,8,9,10-hexahydro-5H-pyrazino[1′,2′:4,5]pyrazino[2,3-c]pyridazine-8-carbonyl)piperidin-1-yl)methyl)morpholino)-1-oxoisoindolin-2-yl)piperidine-2,6-dione] | < 10 nM | ≤ 50% | 10 to 100 nM | 50 to 75%
6 | O=C1CCC(N2Cc3ccc(N4CCC(CN5CCN(C(=O)N6CCN7c8cc(-c9ccccc9O)nnc8NC[C@H]7C6)C(CO)C5)CC4)cc3C2=O)C(=O)N1 (stereo partly drawn) [Example 110, 3-(6-(4-((3-(hydroxymethyl)-4-((S)-2-(2-hydroxyphenyl)-6,6a,7,8,9,10-hexahydro-5H-pyrazino[1′,2′:4,5]pyrazino[2,3-c]pyridazine-8-carbonyl)piperazin-1-yl)methyl)piperidin-1-yl)-1-oxoisoindolin-2-yl)piperidine-2,6-dione] | < 10 nM | > 85% | 10 to 100 nM | 75 to 85%
